Measurements reported in paper PMC2011122 (British Journal of Cancer, 1982).
Where two headings read alike, the source gives them in different places.

Assays:
steroidogenesis = conditions: no reference given; cited from earlier work
[1] = set-up: method as in Hoffman & Tagmann, 1954; conditions: ref Hoffman & Tagmann, 1954; cited from earlier work
[2] = set-up: method as in Testa & Jenner, 1976; conditions: ref Testa & Jenner, 1976; cited from earlier work
[3] = Polymorphic acetylation in humans; type: in vivo; conditions: conclusion from urinary excretion in 10 phenotyped volunteers
bovine adrenal cells = test system: bovine adrenal cells; set-up: method as in Coombes et al., 1980; conditions: bovine adrenal cells in culture, ref Coombes et al., 1980, cited from earlier work; for Glucocorticoid production, % of the resting levels: 10 ug/ml
[4] = set-up: method as in Coombes et al. (1980); conditions: after AG, ref Coombes et al. (1980), cited from earlier work
[5] = cited from earlier work
mammary carcinoma = test system: mammary carcinoma; set-up: method as in Smith et al., 1978; conditions: postmenopausal women; ref Smith et al., 1978; cited from earlier work
[6] = 24 h urinary excretion of AG and metabolites in volunteers given oral AG; conditions: oral AG 250 mg, 24 h urine, excreted as the named substance; for Percentage of the administered dose excreted in the urine during 24 h, mean, rapid (fast) acetylators: rapid acetylators of sulphadimidine (5 volunteers); for Percentage of the administered dose excreted in the urine during 24 h, mean, slow acetylators: slow acetylators of sulphadimidine (5 volunteers)
[7] = set-up: method as in Douglas & Nicholls, 1972; conditions: humans, urine; ref Douglas & Nicholls, 1972; cited from earlier work
[8] = 6 h urine after sulphadimidine

CCC1(c2ccccc2)CCC(=O)NC1=O (stereo not shown) [glutethimide]
Inhibitory effect on steroidogenesis (steroidogenesis): little inhibitory effect
Hypnotic activity [1]: powerful hypnotic

NNC(=O)c1ccncc1 [isoniazid]
Acetylation polymorphism in humans [2]: polymor- phically acetylated

Cc1cc(C)nc(NS(=O)(=O)c2ccc(N)cc2)n1 [sulphamethazine]
Acetylation polymorphism in humans [2]: polymor- phically acetylated

Nc1ccc(S(=O)(=O)c2ccc(N)cc2)cc1 [diaminodiphenylsulphone]
Acetylation polymorphism in humans [2]: polymor- phically acetylated

CCC1(c2ccc(N)cc2)CCC(=O)NC1=O (stereo not shown) [AG, aminoglutethimide]
Acetylation polymorphism in humans [3]: polymorphically acetylated
Glucocorticoid production, % of the resting levels (bovine adrenal cells): 833%
Plasma level at 0.5 h, mean, slow acetylators ([4]; 4 slow acetylators): 1140 ng/mL
Plasma level at 0.5 h, mean, rapid acetylators ([4]; 5 rapid acetylators): 960 ng/mL
Plasma level at 2 h, mean, rapid acetylators ([4]; 5 rapid acetylators): 0 to 60000 ng/mL
Side effects in patients ([5]; patients, ref Smith et al., 1978): skin rash and lethargy
Efficacy in the treatment of mammary carcinoma (mammary carcinoma): effective agent

NNc1nncc2ccccc12 [hydralazine]
Adverse side-effect induced ([5]; preponderantly in slow acetylators, ref Perry et al., 1970): lupus erythematosus

CCC1(c2ccc([N+](=O)[O-])cc2)CCC(=O)NC1=O (stereo not shown) [nitroG, Nitroglutethimide]
Percentage of the administered dose excreted in the urine during 24 h, mean, rapid (fast) acetylators [6]: 0.047%
Percentage of the administered dose excreted in the urine during 24 h, mean, slow acetylators [6]: 0.10%

CCC1(c2ccc(NC(C)=O)cc2)CCC(=O)NC1=O (stereo not shown) [N-acetylAG, N-Acetylaminoglutethimide]
Glucocorticoid production, % of the resting levels (bovine adrenal cells): 58%
Inhibition of steroidogenesis (ability to reduce corticosteroid output) (bovine adrenal cells; compared with AG): poor inhibitor
Plasma level at 8 h, mean, slow acetylators ([4]; 4 slow acetylators): 0 to 37000 ng/mL
Percentage of the administered dose of AG accounted for as urinary metabolite [7]: 4-25%
Percentage of the administered dose excreted in the urine during 24 h, mean, rapid (fast) acetylators [6]: 8.8%
Percentage of the administered dose excreted in the urine during 24 h, mean, slow acetylators [6]: 3.9%

CCC1(c2ccc(NC=O)cc2)CCC(=O)NC1=O (stereo not shown) [N-formylAG, N-Formylaminoglutethimide]
Percentage of the administered dose excreted in the urine during 24 h, mean, rapid (fast) acetylators [6]: 0.465%
Percentage of the administered dose excreted in the urine during 24 h, mean, slow acetylators [6]: 0.475%

CC(=O)Nc1ccc(S(=O)(=O)Nc2nc(C)cc(C)n2)cc1 [N-acetylsulphadimidine]
Percentage of the excreted dose as N-acetylsulphadimidine, rapid acetylators ([8]; rapid acetylators): 89-96%
Percentage of the excreted dose as N-acetylsulphadimidine, slow acetylators ([8]; slow acetylators): 62-68%
